We go through 24 compounds from patent publication EP3184514A1, “AUTOPHAGY INHIBITORS” (Deutsches Krebsforschungszentrum, priority 2015, dated 2017).

The target of experiment [1] is T1, LC3B (Homo sapiens, UniProt Q9GZQ8).
T1 construct: made in house; host or cells: E. coli Rosetta (DE3)
As to the kind of experiment: AlphaScreen interaction displacement assay (GST-LC3B / biotin-LIRtide). The class given is binding. As to the method: The AlphaScreen assay contained 50 mM Tris (pH 7.5), 100 mM NaCl, 0.01% Tween 20, 2 mM DTT, 1 % DMSO and 2-30 nM GST-LC3B and biotin-LIRtide 2-30 nM. The concentrations of GST-LC3B and biotin-LIRtide were experimentally chosen from a cross-titration assay exploring the different combinations of for each batch of protein used and when a new batch of buffer was prepared.
A gene encoding for human LC3B protein inserted in a pET-GST expression vector was used as a template. Rosetta (DE3) competent cells were transformed by started procedure, plated on an LB agar plate with ampicillin (100 µg/ml) and left overnight at 37 °C. Overnight culture was prepared from a single colony and shaken at 180 rpm at 37 °C. LB medium with ampicillin was inoculated with overnight culture (10 ml per 500 ml of LB) and shaken until the optical density at 600 nm (OD600) reached a value of approximately 0.6. Protein expression was then induced with 400 µM IPTG and further incubated for 4 hours. Bacterial culture was centrifuged for 20 minutes at 6000 rpm at 4 °C. The pellet was then resuspended in lysis buffer (20 mM TRIS-HCl pH 7.5, 10 mM EDTA, 5 mM EGTA, 150 mM NaCl, 0.5 % NP40, 1 % Triton X-100, 1 mM DTT, 2 mg/ml lysozyme, 0.05 U/µl benzonase, 1x protease inhibitor cocktail). Lysate was then stored at -20 °C over night. Sample was thawed in water bath and sonicated on ice (40 % amplitude, 30 seconds pulse/30 seconds pause cycle). Lysate was centrifuged at 10000xg at 4 °C for half an hour. Meanwhile, 500 µl of glutathione sepharose beads was equilibrated with lysis buffer and then added to the supernatant. The mixture was incubated and rotated at room temperature for 2 hours. After binding of the protein to the beads, beads were spun down at 500xg at 4 °C for 5 minutes. Pellet was then washed with cold wash buffer at least four times (20 mM Tris-HCl pH 7.5, 10 mM EDTA, 5 mM EGTA, 150 mM NaCl, 1 mM DTT), dried and stored in 5 % glycerol at 4 °C.

The subject of experiment [2] is LC3B. In words: cellular autophagy screening: LC3B spots by immunocytochemistry and automated confocal imaging. The experiment is classed as cell-based. To be noted: relative to negative DMSO control, 100 µM, 1 hour; for LC3B Inhibition cell based Fold increase of LC3B spots: Table 2a; for LC3B inhibition cell based Fold increase of LC3B spots [DMSO control 1.0]: Table 1-a, n.e. means no effect. On the procedure: For screening purposes, cells were seeded in 384 well plates and left over night for attachment.
Afterwards, medium was removed and 4 % (w/v) paraformaldehyde (PFA) in PBS buffer was added to the cells for 20 minutes, incubated at room temperature. Cells were permeabilized with 0.1 % (v/v) Triton X-100 for 10 min at room temperature and washed with PBS. Cells were blocked with 3 % (w/v) bovine serum albumin (BSA) in PBS for 45 minutes at 37 °C and then incubated with anti-LC3B (PM036, MBL) or anti-p62 (PM045 or M162-3, MBL) primary antibody diluted in 0.3 % BSA (1:2000 or 1:500) for 1.5-2 hours at 37 °C. Cells were washed three times with PBS.
384 well plates were then analyzed with an automated confocal microscope Opera (PerkinElmer) enabling high throughput high content screening image analysis. […] A water immersion 60x objective was used for optical slicing and stacking (5x0.5 µm stacks). […] Signal was detected with a fast gated CCD camera. Acapella software (PerkinElmer) is an algorithm based high content imaging and analysis software used in multi-parametric multiplex assays. Acapella was used to follow cell viability (i.e. number of cells) and the number of LC3B and p62 spots per cell.
The LC3B protein is a ubiquitin-like protein that can be conjugated to phosphatidylethanolamine (PE) in the membrane of the incipient autophagosome. The nonlipidated and lipidated forms are usually referred to as LC3B-I and LC3B-II, respectively. […] Autophagic flux is often inferred on the basis of LC3B-II turnover, measured by western blot (WB) or immunofluorescence (IF) in the presence and absence of lysosomal degradation. […] Lysosomal degradation can be prevented e.g. through the use of compounds that neutralize the lysosomal pH such as Bafilomycin A1 (BafA1) or chloroquine (CQ). […] An additive or supra-additive effect in LC3B-II levels (WB) and LC3B-positive punctae numbers (IF) may indicate that the treatment enhances autophagic flux. […] This assay can be complemented by simultaneous monitoring of autophagosomal substrates or autophagosomal substrate receptors (e.g. SQSTM1/p62) by WB and/or IF. For example, an increase in LC3B-II levels in combination with the accumulation of SQSTM1/p62 is indicative of a blockage of the autophagy pathway at terminal stages.

[3] abbreviates: Table 2a, read-out: LC3B Inhibition cell free IC50.
[4] abbreviates: Table 1-a, n.e. means no effect, read-out: LC3B inhibition cell free IC50.
Setting [5] is: Table 1-a, n.e. means no effect.

The structures appear in SMILES notation. Like-named read-outs stand apart in the source and are kept apart here.

One may read the IC50 as the point on the concentration scale where inhibition reaches its midpoint. Take `CC(C)=CCc1cc(C(=O)Nc2c(O)c3ccc(O)c(C)c3oc2=O)ccc1O` [Compound 2-1, N-(4,7-dihydroxy-8-methyl-2-oxo-2H-chromen-3-yl)-4-hydroxy-3-(3-methylbut-2-en-1-yl)benzamide]: the IC50 in experiment [1] (setting [3]) stood at 87 µM. As for `COC1C(OC(N)=O)C(OC(C)=O)C(Oc2ccc3c(O)c(NC(=O)c4ccc(OC(C)=O)c(CC=C(C)C)c4)c(=O)oc3c2C)OC1(C)C` (centres unmarked) [Compound 2-2], in experiment [1] (setting [3]), the IC50 stood at 19.3 µM. In addition, the “LC3B Inhibition cell based Fold increase of LC3B spots” value in experiment [2] is reported as 1.5. Take `COC1C(OC(N)=O)C(O)C(Oc2ccc3c(O)c(NC(=O)c4ccc(O)c(CCC(C)C)c4)c(=O)oc3c2C)OC1(C)C` (centres unmarked) [Compound 2-4, 5-hydroxy-6-((4-hydroxy-3-(4-hydroxy-3-isopentylbenzamido)-8-methyl-2-oxo-2H-chromen-7-yl)oxy)-3-methoxy-2,2-dimethyltetrahydro-2H-pyran-4-y/carbamate]: the IC50 in experiment [1] (setting [3]) came to 4.8 µM. Also, the “LC3B Inhibition cell based Fold increase of LC3B spots” value in experiment [2] was 1.2.

In the case of `COC1C(OC(N)=O)C(OC(C)=O)C(Oc2ccc3c(O)c(NC(=O)C(Cc4ccccc4)NC(=O)OC(C)(C)C)c(=O)oc3c2C)OC1(C)C` (centres unmarked) [Compound 2-7], the half-maximal inhibitory concentration (IC50) in experiment [1] (setting [3]) came out at 145 µM. Besides, in experiment [2], the “LC3B Inhibition cell based Fold increase of LC3B spots” value was 1.0. In the same order, the values of `Cc1c(O)ccc2c(O)c(NC(=O)C(Cc3ccccc3)NC(=O)OC(C)(C)C)c(=O)oc12` (centres unmarked) [Compound 2-8] are 122 µM and 1.0. In the same order, the values of `Cc1c(O)ccc2c(O)c(NC(=O)C(CC(C)C)NC(=O)OC(C)(C)C)c(=O)oc12` (centres unmarked) [Compound 2-9] are 73.3 µM and 1.2. As to `Cc1c(O)ccc2c(O)c(NC(=O)C(CCc3ccccc3)NC(=O)OC(C)(C)C)c(=O)oc12` (centres unmarked) [Compound 2-10], the IC50 in experiment [1] (setting [3]) was determined as 155 µM. Besides, the “LC3B Inhibition cell based Fold increase of LC3B spots” value in experiment [2] is on record as 1.0. The corresponding values for `Cc1c(O)ccc2c(O)c(NC(=O)c3cccc(-c4ccccc4)c3)c(=O)oc12` [Compound 2-11] are 63 µM and 1.1. Regarding `Cc1c(O)ccc2c(O)c(NC(=O)c3cccc(Oc4ccccc4)c3)c(=O)oc12` [Compound 2-12], the IC50 in experiment [1] (setting [3]) worked out at 54 µM. The “LC3B Inhibition cell based Fold increase of LC3B spots” value in experiment [2] is given as 1.1. With `Clc1ccc(CSC2=NCN(Cc3cccnc3)CN2)cc1` [Compound I-2, 6-((4-chlorobenzyl)thio)-3-(pyridin-3-ylmethyl)-12,3,4-tetrahydro-1,3,5-triazine], the half-inhibitory concentration (IC50) in experiment [1] (setting [4]) was 16 µM. The “LC3B inhibition cell based Fold increase of LC3B spots [DMSO control 1.0]” value in experiment [2] was determined as 3.2. The corresponding values for `Fc1ccc(CSC2=NCN(Cc3cccnc3)CN2)cc1` [Compound I-3, 6-((4-fluorobenzyl)thio)-3-(pyridin-3-ylmethyl)-1,2,3,4-tetrahydro-1,3,5-triazine] are 23.6 µM and 1.8. In the same order, the values of `c1ccc(CSC2=NCN(Cc3cccnc3)CN2)cc1` [Compound I-4, 6-(benzylthio)-3-(pyridin-3-ylmethyl)-1,2,3,4-tetrahydro-1,3,5-triazine] are 19.5 µM and 1.7. In the same order, the values of `FC(F)(F)c1ccc(CSC2=NCN(Cc3cccnc3)CN2)cc1` [Compound I-5, 3-(pyridin-3-ylmethyl)-6-((4-(trifluoromethyl)benzyl)thio)-1,2,3,4-tetrahydro-1,3,5-triazine] are 30.9 µM and 3.2.

As to `COc1ccc(CSC2=NCN(Cc3cccnc3)CN2)cc1` [Compound I-6, 6-((4-methoxybenzyl)thio)-3-(pyridin-3-ylmethyl)-1,2,3,4-tetrahydro-1,3,5-triazine], the IC50 in experiment [1] (setting [4]) was 12.3 µM. The “LC3B inhibition cell based Fold increase of LC3B spots [DMSO control 1.0]” value in experiment [2] stood at 1.8.

In the case of `CC(C)CCNC(=O)c1ccc(CSC2=NCN(Cc3cccnc3)CN2)cc1` [Compound I-7, N-isopentyl-4-(((5-(pyridin-3-ylmethyl)-1,4,5,6-tetrahydro-1,3,5-triazin-2-yl)thio)methyl)benzamide], in experiment [1] (setting [4]), the IC50 was 26.6 µM. Also, in experiment [2], the “LC3B inhibition cell based Fold increase of LC3B spots [DMSO control 1.0]” value was 3.1. In the same order, the values of `Brc1cccc(CSC2=NCN(Cc3cccnc3)CN2)c1` [Compound I-8, 6-((3-bromobenzyl)thio)-3-(pyridin-3-ylmethyl)-1,2,3,4-tetrahydro-1,3,5-triazine] are 21 µM and 3.0. The corresponding values for `COc1cccc(CSC2=NCN(Cc3cccnc3)CN2)c1` [Compound I-9, 6-((3-methoxybenzyl)thio)-3-(pyridin-3-ylmethyl)-1,2,3,4-tetrahydro-1,3,5-triazine] are 18.5 µM and “n.e”.

In the case of `c1ccc(Oc2cccc(CSC3=NCN(Cc4cccnc4)CN3)c2)cc1` [Compound I-10, 6-((3-phenoxybenzyl)thio)-3-(pyridin-3-ylmethyl)-1,2,3,4-tetrahydro-1,3,5-triazine], in experiment [1] (setting [4]), the IC50 amounted to 1 µM. For the same compound, the “LC3B inhibition cell based Fold increase of LC3B spots [DMSO control 1.0]” value in experiment [2] is given as 6.1. The corresponding values for `CC(C)CCNC(=O)c1cccc(CSC2=NCN(Cc3cccnc3)CN2)c1` [Compound I-11, N-isopentyl-3-(((5-(pyridin-3-ylmethyl)-1,4,5,6-tetrahydro-1,3,5-triazin-2-yl)thio)methyl)benzamide] are 12.2 µM and “n.e”. For the compound `Fc1ccc(CN2CN=C(SCc3cccc(Oc4ccccc4)c3)NC2)cc1F` [Compound I-18, 3-(3,4-difluorobenzyl)-6-((3-phenoxybenzyl)thio)-1,2,3,4-tetrahydro-1,3,5-triazine], the “LC3B inhibition cell free IC50” value in experiment [1] (setting [5]) was “n.e”. In the case of `Fc1cccc(CN2CN=C(SCc3ccc(Br)cc3)NC2)c1` [Compound I-19, 6-((4-bromobenzyl)thio)-3-(3-fluorobenzyl)-1,2,3,4-tetrahydro-1,3,5-triazine], in experiment [1] (setting [5]), the “LC3B inhibition cell free IC50” value is reported as “n.e”. Same read-out and setting: the value for `Fc1cccc(CN2CN=C(SCc3cccc(Oc4ccccc4)c3)NC2)c1` [Compound I-20, 3-(3-fluorobenzyl)-6-((3-phenoxybenzyl)thio)-1,2,3,4-tetrahydro-1,3,5-triazine] was “n.e”.

For the compound `CCN(CC)CCCC(C)Nc1ccnc2cc(Cl)ccc12` (centres unmarked) [chloroquine, reference compound], in experiment [2], the “LC3B inhibition cell based Fold increase of LC3B spots [DMSO control 1.0]” value worked out at 4.4 and the “LC3B Inhibition cell based Fold increase of LC3B spots” value is reported as 4.4. Regarding `CCC(=O)N1CCN(c2ccc(-n3c(=O)ccc4cnc5ccc(-c6cnc7ccccc7c6)cc5c43)cc2C(F)(F)F)CC1` [torin 1, reference compound], in experiment [2], the “LC3B inhibition cell based Fold increase of LC3B spots [DMSO control 1.0]” value is 3.1 and the “LC3B Inhibition cell based Fold increase of LC3B spots” value was 3.1.
